Data set [1] in a line: Crop yield and fruit quality from treated soils. The data set is classed as in vivo. The source says:
Water (27.5%), PBTC (17.5%) and hydrochloric acid (HCl) (55%) were admixed to form a first solution. Water (85%) and sodium chlorite (15%) were admixed to form a second solution. The first and second solutions were combined to form a combined solution. Sufficient contact time was allowed in the mixing vessel 12 to convert a substantial portion of the sodium chlorite solution into chlorine dioxide. The combined solution can also be referred to as chlorine dioxide. For test purposes, five soil beds were prepared. These beds were covered with sheet plastic. […] […] […] […] The fifth soil bed was treated with methyl-bromide at E.P.A. label recommended dose rates.

A short description of data set [2]: Decomposition in soil and consequences to the environment. The conditions noted are these: soil bed treatment. The source says:
(§1) Water (27.5%), PBTC (17.5%) and hydrochloric acid (HCl) (55%) were admixed to form a first solution. Water (85%) and sodium chlorite (15%) were admixed to form a second solution. The first and second solutions were combined to form a combined solution. Sufficient contact time was allowed in the mixing vessel 12 to convert a substantial portion of the sodium chlorite solution into chlorine dioxide. The combined solution can also be referred to as chlorine dioxide. For test purposes, five soil beds were prepared. These beds were covered with sheet plastic. In the first bed, 150 ppm of chlorine dioxide was added irrigation water and the mixture was introduced to the soil bed until the soil bed was saturated. In the second soil bed, 350 ppm of chlorine dioxide was added to irrigation water and the mixture was introduced into the second soil bed until the second soil bed was saturated. The third soil bed received 750 ppm of chlorine dioxide in irrigation water until that bed was saturated. The fourth soil bed received a mixture of 950 ppm of chlorine dioxide in irrigation water until that soil bed was saturated. The fifth soil bed was treated with methyl-bromide at E.P.A. label recommended dose rates.

The subject of data set [3] is weed and undesirable plant growth. As to the kind of experiment: Weed growth suspension in treated, plastic-covered soil beds. The conditions noted are these: after six days of treatment. The data set is classed as in vivo.
Source text: as §1

Where [4] appears, read: soil treated with methyl bromide, used as at EPA label requirements.

In the case of `[O][Cl+][O-]` [Chlorine Dioxide, chlorine dioxide], the Crates/Acres amounted to 495 Crates/Acres in data set [1] (75 ppm solution), 483 Crates/Acres in data set [1] (175 ppm solution), 429 Crates/Acres in data set [1] (375 ppm solution) and 651 Crates/Acres in data set [1] (475 ppm solution). The “Fruit Grams” value in data set [1] (75 ppm solution) is on record as 25.5 Grams; in data set [1] (175 ppm solution), 26.6 Grams; in data set [1] (375 ppm solution), 27.1 Grams; in data set [1] (475 ppm solution), 28.9 Grams. Moreover, the “Marketable Crates/Acre” value in data set [1] (75 ppm solution) is 431 Crates/Acre; in data set [1] (175 ppm solution) it was 435 Crates/Acre; in data set [1] (375 ppm solution), 572 Crates/Acre; in data set [1] (475 ppm solution), 605 Crates/Acre. Besides, the “Yield performance of treated soils versus methyl bromide treated soils” value in data set [1] (comparison in words) was “exceeded the methyl bromide treated soils”. In data set [1] (higher versus lower chlorine dioxide levels, in words), the “Yield at the higher chlorine dioxide levels” value was “greater yields”. Also, the “Consequences to the environment” value in data set [2] is listed as “without any negative consequences to the environment”. Moreover, in data set [3] (all four dosages (150, 350, 750, 950 ppm in irrigation water, bed saturated)), the “Suspension of weed and undesirable plant growth” value was “suspend weed and undesirable plant growth entirely”.
On to `CBr` [Methyl Bromide, Methyl-bromide, reference compound], for which, in data set [1] (setting [4]), the Crates/Acres is 455 Crates/Acres, the “Fruit Grams” value was determined as 32.8 Grams and the “Marketable Crates/Acre” value is given as 428 Crates/Acre. For the same compound, in data set [2], the “Consequences to the environment” value was “had an adverse effect on the environment”. Besides, in data set [3] (E.P.A. label recommended dose rates), the “Effectiveness as a fumigant” value is given as “effective as a fumigant”.

For the origin of these results see US20200345011A1, “METHOD OF […] GROWTH IN SOIL” (CH2O Incorporated, priority 2008, published 2020).
